Columns and labels:
[1] = The drug is tested on Bacteroides xylanisolvens strain: DSM18836 for biotransformation. The drug concentrations were measured before and after a 12-h incubation by liquid-chromatography-coupled mass spectrometry (LC–MS); conditions: 2 µM
[2] = The drug is tested on Clostridium ramosum strain: DSM1402 for biotransformation. The drug concentrations were measured before and after a 12-h incubation by liquid-chromatography-coupled mass spectrometry (LC–MS); conditions: thomasclavelia ramosa, 2 µM
[3] = The drug is tested on Bacteroides dorei strain: DSM17855 for biotransformation. The drug concentrations were measured before and after a 12-h incubation by liquid-chromatography-coupled mass spectrometry (LC–MS); conditions: phocaeicola dorei, 2 µM
[4] = The drug is tested on Bacteroides cellulosilyticus strain: DSM14838 for biotransformation. The drug concentrations were measured before and after a 12-h incubation by liquid-chromatography-coupled mass spectrometry (LC–MS); conditions: 2 µM
[5] = The drug is tested on Clostridium symbiosum strain: ATCC14940 for biotransformation. The drug concentrations were measured before and after a 12-h incubation by liquid-chromatography-coupled mass spectrometry (LC–MS); conditions: 2 µM
[6] = The drug is tested on Bacteroides fragilis strain: ATCC43859 for biotransformation. The drug concentrations were measured before and after a 12-h incubation by liquid-chromatography-coupled mass spectrometry (LC–MS); conditions: 2 µM
[7] = The drug is tested on Bacteroides sp. WH2 strain: WH2 for biotransformation. The drug concentrations were measured before and after a 12-h incubation by liquid-chromatography-coupled mass spectrometry (LC–MS); conditions: bacteroides sp. wh2, 12 h, 2 µM
[8] = bacteroides thetaiotaomicron, 12 h, 2 µM
Description: The drug is tested on Bacteroides thetaiotaomicron strain: 7330 for biotransformation. The drug concentrations were measured before and after a 12-h incubation by liquid-chromatography-coupled mass spectrometry (LC–MS)

[9] = The drug is tested on Providencia rettgeri strain: DSM1131 for biotransformation. The drug concentrations were measured before and after a 12-h incubation by liquid-chromatography-coupled mass spectrometry (LC–MS); assay type: ADME; set-up: dose 2 uM, timepoint 0 vs 12 hours; conditions: 2 µM
[10] = akkermansia muciniphila, 12 h, 2 µM
Description: The drug is tested on Akkermansia muciniphila strain: ATCC BAA-835 for biotransformation. The drug concentrations were measured before and after a 12-h incubation by liquid-chromatography-coupled mass spectrometry (LC–MS)

[11] = The drug is tested on Edwardsiella tarda strain: ATCC23685 for biotransformation. The drug concentrations were measured before and after a 12-h incubation by liquid-chromatography-coupled mass spectrometry (LC–MS); conditions: 2 µM
[12] = The drug is tested on Coprococcus comes strain: ATCC27758 for biotransformation. The drug concentrations were measured before and after a 12-h incubation by liquid-chromatography-coupled mass spectrometry (LC–MS); assay type: ADME; set-up: dose 2 uM, timepoint 0 vs 12 hours; conditions: 2 µM
[13] = The drug is tested on Eubacterium ventriosum strain: ATCC27560 for biotransformation. The drug concentrations were measured before and after a 12-h incubation by liquid-chromatography-coupled mass spectrometry (LC–MS); assay type: ADME; set-up: dose 2 uM, timepoint 0 vs 12 hours; conditions: 2 µM
[14] = The drug is tested on Eggerthella lenta strain: ATCC25559 for biotransformation. The drug concentrations were measured before and after a 12-h incubation by liquid-chromatography-coupled mass spectrometry (LC–MS); conditions: 2 µM
[15] = The drug is tested on Enterococcus faecalis strain: V583 for biotransformation. The drug concentrations were measured before and after a 12-h incubation by liquid-chromatography-coupled mass spectrometry (LC–MS); conditions: 2 µM
[16] = The drug is tested on Ruminococcus torques strain: ATCC27756 for biotransformation. The drug concentrations were measured before and after a 12-h incubation by liquid-chromatography-coupled mass spectrometry (LC–MS); assay type: ADME; set-up: dose 2 uM, timepoint 0 vs 12 hours; conditions: 2 µM
[17] = bacteroides eggerthii, 12 h, 2 µM
Description: The drug is tested on Bacteroides eggerthii strain: DSM20697 for biotransformation. The drug concentrations were measured before and after a 12-h incubation by liquid-chromatography-coupled mass spectrometry (LC–MS)

[18] = The drug is tested on Bacteroides ovatus strain: ATCC8483 for biotransformation. The drug concentrations were measured before and after a 12-h incubation by liquid-chromatography-coupled mass spectrometry (LC–MS); conditions: 2 µM
[19] = The drug is tested on Blautia luti strain: DSM14534 for biotransformation. The drug concentrations were measured before and after a 12-h incubation by liquid-chromatography-coupled mass spectrometry (LC–MS); assay type: ADME; set-up: dose 2 uM, timepoint 0 vs 12 hours; conditions: 2 µM
[20] = The drug is tested on Bacteroides coprophilus strain: DSM18228 for biotransformation. The drug concentrations were measured before and after a 12-h incubation by liquid-chromatography-coupled mass spectrometry (LC–MS); conditions: 2 µM

SMILES | Bacterial Biotransformation [1] | Bacterial Biotransformation [2] | Bacterial Biotransformation [3] | Bacterial Biotransformation [4] | Bacterial Biotransformation [5] | Bacterial Biotransformation [6] | Bacterial Biotransformation [7] | Bacterial Biotransformation [8] | Bacterial Biotransformation [9] | Bacterial Biotransformation [10] | Bacterial Biotransformation [11] | Bacterial Biotransformation [12] | Bacterial Biotransformation [13] | Bacterial Biotransformation [14] | Bacterial Biotransformation [15] | Bacterial Biotransformation [16] | Bacterial Biotransformation [17] | Bacterial Biotransformation [18] | Bacterial Biotransformation [19] | Bacterial Biotransformation [20]
CN1CCc2cccc3c2[C@H]1Cc1ccc(O)c(O)c1-3 [APOMORPHINE] | Compound NOT metabolized | Compound NOT metabolized | Compound NOT metabolized | Compound NOT metabolized | Compound NOT metabolized | Compound NOT metabolized | Compound NOT metabolized | Compound NOT metabolized | Compound NOT metabolized | Compound NOT metabolized | Compound NOT metabolized | Compound NOT metabolized | Compound NOT metabolized | Compound NOT metabolized | Compound NOT metabolized | Compound NOT metabolized | Compound NOT metabolized | Compound NOT metabolized | Compound NOT metabolized | 
CCc1oc2ccccc2c1C(=O)c1cc(Br)c(O)c(Br)c1 [BENZBROMARONE] | Compound NOT metabolized | Compound NOT metabolized |  | Compound NOT metabolized | Compound NOT metabolized | Compound NOT metabolized | Compound NOT metabolized | Compound NOT metabolized | Compound NOT metabolized | Compound NOT metabolized | Compound NOT metabolized | Compound NOT metabolized | Compound NOT metabolized | Compound NOT metabolized | Compound NOT metabolized |  | Compound NOT metabolized | Compound NOT metabolized | Compound NOT metabolized | Compound NOT metabolized
CN1CCC[C@@H]1CCO[C@](C)(c1ccccc1)c1ccc(Cl)cc1.O=C(O)/C=C/C(=O)O [CLEMASTINE FUMARATE] | Compound metabolized | Compound NOT metabolized | Compound metabolized | Compound metabolized | Compound NOT metabolized | Compound NOT metabolized |  | Compound metabolized | Compound metabolized |  | Compound NOT metabolized |  | Compound NOT metabolized | Compound NOT metabolized |  | Compound NOT metabolized | Compound metabolized | Compound NOT metabolized | Compound NOT metabolized | Compound metabolized
CC(C)(C)NCC(O)c1cc(Cl)c(N)c(Cl)c1 (centres undefined) [CLENBUTEROL] | Compound NOT metabolized | Compound NOT metabolized | Compound NOT metabolized | Compound NOT metabolized | Compound NOT metabolized | Compound NOT metabolized | Compound NOT metabolized |  | Compound NOT metabolized | Compound NOT metabolized | Compound NOT metabolized | Compound NOT metabolized | Compound NOT metabolized | Compound NOT metabolized | Compound NOT metabolized | Compound NOT metabolized | Compound NOT metabolized | Compound NOT metabolized | Compound NOT metabolized | Compound NOT metabolized
CNCCC(Oc1ccc(C(F)(F)F)cc1)c1ccccc1 (centres undefined) [FLUOXETINE] | Compound metabolized | Compound metabolized | Compound metabolized | Compound NOT metabolized |  | Compound metabolized | Compound metabolized | Compound metabolized | Compound NOT metabolized | Compound metabolized | Compound NOT metabolized |  | Compound metabolized | Compound NOT metabolized | Compound metabolized | Compound NOT metabolized | Compound metabolized | Compound metabolized | Compound NOT metabolized | Compound metabolized
CC#C[C@]1(O)CC[C@H]2[C@@H]3CCC4=CC(=O)CCC4=C3[C@@H](c3ccc(N(C)C)cc3)C[C@@]21C [MIFEPRISTONE] |  | Compound NOT metabolized | Compound metabolized | Compound NOT metabolized | Compound NOT metabolized | Compound metabolized | Compound NOT metabolized | Compound NOT metabolized | Compound NOT metabolized | Compound NOT metabolized | Compound NOT metabolized | Compound NOT metabolized | Compound NOT metabolized | Compound NOT metabolized | Compound metabolized | Compound NOT metabolized |  |  | Compound NOT metabolized | Compound NOT metabolized
CCOC(=O)C1=C(C)NC(C)=C(C(=O)OC)C1c1cccc([N+](=O)[O-])c1 (centres undefined) [NITRENDIPINE] | Compound metabolized | Compound metabolized | Compound metabolized | Compound metabolized | Compound metabolized | Compound metabolized | Compound metabolized | Compound metabolized | Compound metabolized | Compound metabolized | Compound metabolized | Compound metabolized | Compound metabolized | Compound metabolized | Compound metabolized | Compound metabolized | Compound metabolized |  | Compound metabolized | Compound NOT metabolized
Nc1ccc(/N=N/c2ccccc2)c(N)n1 [PHENAZOPYRIDINE] | Compound metabolized | Compound metabolized | Compound metabolized | Compound metabolized | Compound metabolized | Compound metabolized | Compound metabolized | Compound metabolized | Compound NOT metabolized |  |  | Compound metabolized | Compound metabolized | Compound metabolized | Compound metabolized | Compound metabolized | Compound metabolized | Compound metabolized | Compound metabolized | Compound NOT metabolized
